From patent publication US20010014742A1, “Water-soluble prodrugs of azole compounds” (priority 1999, published 2001)
Values after ≈ are worked out from the molar mass of the structure shown.

Assay: aqueous solubility
Type: physicochemical
Conditions: water at pH 6.8

solubility: 0.6 µg/mL (≈ 1.37 µM)
SMILES: C[C@@H](c1nc(-c2ccc(C#N)cc2)cs1)C(O)(Cn1cncn1)c1ccc(F)cc1F (stereo partly drawn) [the above triazole compound, (2R,3R)-3-[4-(4-cyanophenyl)thiazol-2-yl]-2-(2,4-difluorophenyl)-1-(1H,1,2,4-triazol-1-yl)-butan-2-ol]
